From the C3SDB collision cross section collection come the findings set out here.

Each structure is given as a SMILES string. Values joined by “and” are separate entries in the source; they are usually repeats but may differ in a detail not shown here. Equal entries are not always repeated.

The conditions of this data set: instrument: DT, single field, calibrated with ESI Low Concentration Tuning Mix (Agilent).

Consider `O=C(O)[C@H](O)[C@@H](O)[C@H](O)[C@H](O)COP(=O)(O)O` [6-PHOSPHOGLUCONATE], for which the “collision cross section (N2)” value turned out to be 148.9 Å² ([M+Na-2H]-), 157.6 Å² ([M+Na]+) and 143.6 Å² ([M-H]-).

Regarding `Nc1ncnc2c1ncn2C1OC(CO)C2OP(=O)(O)OC21` (configuration not stated) [ADENOSINE 2',3'-CYCLIC PHOSPHATE], the “collision cross section (N2)” value runs as follows: ([M+H2O-H]-) 173.5 Å²; ([M+H]+) 168.1 Å²; ([M+Na]+) 175.1 Å² and 181 Å²; ([M-H]-) 169.4 Å².

Consider `Nc1ncnc2c1ncn2[C@@H]1O[C@H](COP(=O)(O)OP(=O)(O)O)[C@@H](O)[C@H]1O` [ADENOSINE 5'-DIPHOSPHATE], for which the “collision cross section (N2)” value ([M+H]+) stood at 187 Å², the “collision cross section (N2)” value ([M+Na-2H]-) was 187.7 Å², the “collision cross section (N2)” value ([M+Na]+) came out at 193.1 Å² and the “collision cross section (N2)” value ([M-H]-) turned out to be 183.7 Å².

Regarding `NC(=O)NC1NC(=O)NC1=O` (configuration not stated) [ALLANTOIN], the “collision cross section (N2)” value ([M+Na]+) came out at 142.2 Å² and the “collision cross section (N2)” value ([M-H]-) came out at 125.5 Å².

For the molecule `OC[C@H]1OC(O)[C@H](O)[C@H](O)[C@@H]1O` (some centres not stated) [ALLOSE], the “collision cross section (N2)” value ([M+Na]+) was 143.2 Å² and 146.2 Å².

Turning to `NC(CCCC(=O)O)C(=O)O` (configuration not stated) [AMINOADIPATE], the “collision cross section (N2)” value ([M+H]+) amounted to 134.6 Å², the “collision cross section (N2)” value ([M+Na-2H]-) was 134 Å², the “collision cross section (N2)” value ([M+Na]+) was found to be 139.2 Å² and the “collision cross section (N2)” value ([M-H]-) is 129.9 Å².

As to `Nc1ccccc1C(=O)O` [ANTHRANILATE], the “collision cross section (N2)” value ([M-H]-) was 125.5 Å².

`CCCCCCCCCCCCCCCCCCCC(=O)O` [ARACHIDATE]: the “collision cross section (N2)” value ([M-H]-) is 185.1 Å².

Turning to `NC(=O)C[C@H](N)C(=O)O` [ASPARAGINE], the “collision cross section (N2)” value reads like this: ([M+Na]+) 129.5 Å²; ([M-H]-) 121.9 Å².

Consider `C[N+](C)(C)CC(=O)[O-]` [BETAINE], for which the “collision cross section (N2)” value ([M+K]+) is given as 130.5 Å².

Take `C=CC1=C(C)C(/C=c2\[nH]/c(=C\c3[nH]c(/C=C4\NC(=O)C(C)=C4C=C)c(C)c3CCC(=O)O)c(CCC(=O)O)c2C)=NC1=O` [BILIVERDIN]: the “collision cross section (N2)” value is 243.9 Å² ([M+H]+), 246.5 Å² ([M+Na]+) and 246 Å² ([M-H]-).

`O=C(O)[C@H]1C[C@@H](O)CN1` [CIS-4-HYDROXY-D-PROLINE]: the “collision cross section (N2)” value by setting is: ([M+H]+) 128.3 Å²; ([M+Na]+) 130.6 Å²; ([M-H]-) 124.3 Å².

Take `CC(O)(CC(=O)O)C(=O)O` (configuration not stated) [CITRAMALATE]: the “collision cross section (N2)” value is recorded as 133.2 Å² ([M+Na]+) and 122 Å² ([M-H]-).

As for `COC1=C(OC)C(=O)C(C/C=C(\C)CC/C=C(\C)CC/C=C(\C)CC/C=C(\C)CC/C=C(\C)CC/C=C(\C)CC/C=C(\C)CC/C=C(\C)CC/C=C(\C)CCC=C(C)C)=C(C)C1=O` [COENZYME Q10], the “collision cross section (N2)” value ([M+Na]+) was 306.6 Å².

With `CC(=O)OCC(=O)[C@@]1(O)CC[C@H]2[C@@H]3CCC4=CC(=O)CC[C@]4(C)[C@H]3[C@@H](O)C[C@@]21C` [CORTISOL 21-ACETATE], the “collision cross section (N2)” value is on record as 198.8 Å² ([M+H]+), 207.2 Å² ([M+K]+), 203 Å² ([M+Na]+) and 196.3 Å² ([M-H]-).

On to `Nc1nc(=O)c2ncn([C@@H]3O[C@@H]4COP(=O)(O)O[C@H]4[C@H]3O)c2[nH]1` [CYCLIC GMP], for which the “collision cross section (N2)” value by setting is: ([M+H]+) 172.4 Å²; ([M+Na-2H]-) 169.7 Å²; ([M+Na]+) 184.2 Å²; ([M-H]-) 167.8 Å².

With `NC(CCSCC(N)C(=O)O)C(=O)O` (configuration not stated) [CYSTATHIONINE], the “collision cross section (N2)” value runs as follows: ([M+H]+) 147.3 Å²; ([M+Na-2H]-) 144.6 Å²; ([M+Na]+) 147.1 Å²; ([M-H]-) 141.9 Å².

Consider `Nc1ccn([C@@H]2O[C@H](COP(=O)(O)O)[C@@H](O)[C@H]2O)c(=O)n1` [CYTIDINE MONOPHOSPHATE], for which the “collision cross section (N2)” value is, setting by setting: ([M+H]+) 166.8 Å² and 167 Å²; ([M+Na-2H]-) 163.2 Å² and 163.4 Å²; ([M+Na]+) 167.9 Å² and 168 Å²; ([M-H]-) 164.4 Å² and 164.5 Å².

As to `Nc1ccn([C@@H]2O[C@H](COP(=O)(O)OP(=O)(O)OP(=O)(O)O)[C@@H](O)[C@H]2O)c(=O)n1` [CYTIDINE TRIPHOSPHATE], the “collision cross section (N2)” value turned out to be 188.4 Å² ([M+H]+), 185 Å² ([M+Na-2H]-), 192.4 Å² ([M+Na]+) and 181.2 Å² ([M-H]-).

As for `Nc1ccnc(=O)[nH]1` [CYTOSINE], the “collision cross section (N2)” value ([M+H]+) is reported as 122.8 Å².

As for `N[C@@H]1C(O)O[C@H](CO)[C@@H](O)[C@@H]1O` (stereo partly drawn) [D-MANNOSAMINE], the “collision cross section (N2)” value ([M+H]+) amounted to 138.1 Å² and the “collision cross section (N2)” value ([M+Na]+) is 141.3 Å².

As to `Nc1ncnc2c1ncn2[C@H]1C[C@H](O)[C@@H](COP(=O)(O)O)O1` [DEOXYADENOSINE MONOPHOSPHATE], the “collision cross section (N2)” value by setting is: ([M+H]+) 168.5 Å²; ([M+Na-2H]-) 169.8 Å²; ([M+Na]+) 173 Å²; ([M-H]-) 164.9 Å².

In the case of `Nc1ccn([C@H]2C[C@H](O)[C@@H](COP(=O)(O)O)O2)c(=O)n1` [DEOXYCYTIDINE MONOPHOSPHATE], the “collision cross section (N2)” value was 157 Å² and 164.7 Å² ([M+Na]+); 162.4 Å² ([M-H]-).

For `O=CC[C@H](O)[C@H](O)CO` [DEOXYRIBOSE], the “collision cross section (N2)” value ([M+Na]+) came to 134.3 Å².

As to `C[C@H](O)[C@H](O)C1=Nc2c([nH]c(N)nc2=O)NC1` [DIHYDROBIOPTERIN], the “collision cross section (N2)” value reads like this: ([M+H]+*) 153.9 Å²; ([M+Na]+*) 157.2 Å².

With `NCCc1ccc(O)c(O)c1` [DOPAMINE], the “collision cross section (N2)” value is reported as 142.3 Å² ([M+H]+) and 131.8 Å² ([M-H]-).

`OC[C@@H](O)[C@@H](O)CO` [ERYTHRITOL]: the “collision cross section (N2)” value ([M+Na]+) was 129.9 Å².

As to `Nc1nc(=O)c2nc(CNc3ccc(C(=O)N[C@@H](CCC(=O)O)C(=O)O)cc3)cnc2[nH]1` [FOLATE], the “collision cross section (N2)” value by setting is: ([M+H]+) 196.2 Å²; ([M+Na-2H]-) 201.3 Å²; ([M+Na]+) 205.7 Å²; ([M-H]-) 192 Å².

As to `C[C@@H]1OC(O)[C@@H](O)[C@H](O)[C@@H]1O` (some centres not stated) [FUCOSE], where the note is “[M+Na]+”, the “collision cross section (N2)” value was determined as 138.7 Å².

With `O=C(O)[C@@H](O)[C@H](O)[C@H](O)[C@@H](O)C(=O)O` [GALACTARATE], the “collision cross section (N2)” value ([M+Na-2H]-) is reported as 137.2 Å², the “collision cross section (N2)” value ([M+Na]+) is 146.9 Å² and the “collision cross section (N2)” value ([M-H]-) is reported as 132.6 Å².

For `OC[C@@H](O)[C@H](O)[C@H](O)[C@@H](O)CO` [GALACTITOL], the “collision cross section (N2)” value is reported as 142.2 Å² ([M+Na]+) and 130.5 Å² ([M-H]-).

With `O=C(O)[C@H](O)[C@@H](O)[C@H](O)[C@H](O)CO` [GLUCONATE], the “collision cross section (N2)” value ([M+Na]+) is 146.2 Å² and 146.3 Å²; the “collision cross section (N2)” value ([M-H]-) came to 132.4 Å².

For `N[C@@H]1[C@@H](O)[C@H](O)[C@@H](COS(=O)(=O)O)O[C@H]1O` [GLUCOSAMINE 6-SULFATE], under “[M-H]-”, the “collision cross section (N2)” value is 149.4 Å².

On to `N[C@@H](CCC(=O)O)C(=O)O` [GLUTAMATE], for which the “collision cross section (N2)” value reads like this: ([M+H]+) 131.1 Å²; ([M+K]+) 149.8 Å²; ([M+Na-2H]-) 131.8 Å²; ([M-H]-) 123.8 Å².

Take `NC(=O)CC[C@H](N)C(=O)O` [GLUTAMINE]: the “collision cross section (N2)” value is, setting by setting: ([M+H]+) 130.9 Å²; ([M-H]-) 127.3 Å².

Turning to `C[N+](C)(C)C[C@@H](CC(=O)[O-])OC(=O)CCCC(=O)O` [GLUTARYLCARNITINE], the “collision cross section (N2)” value runs as follows: ([M+H]+) 161.1 Å²; ([M+Na]+) 167.1 Å²; ([M-H]-) 165.3 Å².

Take `C[C@H](CCC(=O)NCC(=O)O)[C@H]1CC[C@H]2[C@@H]3[C@H](O)C[C@@H]4C[C@H](O)CC[C@]4(C)[C@H]3CC[C@]12C` [GLYCOCHENODEOXYCHOLATE]: the “collision cross section (N2)” value reads like this: ([M+H]+) 196.8 Å²; ([M+Na]+) 203.6 Å²; ([M-H]-) 200.7 Å².

As for `NC(N)=NCC(=O)O` [GUANIDINOACETATE], the “collision cross section (N2)” value reads like this: ([M+H]+) 124.9 Å²; ([M+Na]+) 134.6 Å².

On to `NC(N)=N[C@@H](CC(=O)O)C(=O)O` [GUANIDINOSUCCINATE], for which the “collision cross section (N2)” value is, setting by setting: ([M+H]+) 136.8 Å²; ([M+Na-2H]-) 147 Å²; ([M+Na]+) 148 Å²; ([M-H]-) 130.2 Å².

`Nc1nc(=O)c2ncn([C@@H]3O[C@H](COP(=O)(O)OP(=O)(O)O[C@H]4O[C@H](CO)[C@@H](O)[C@H](O)[C@@H]4O)[C@@H](O)[C@H]3O)c2[nH]1` [GUANOSINE DIPHOSPHATE MANNOSE]: the “collision cross section (N2)” value ([M+H]+) came to 227.4 Å²; the “collision cross section (N2)” value ([M+Na-2H]-) is 205.5 Å² and 217.2 Å²; the “collision cross section (N2)” value ([M+Na]+) worked out at 222.3 Å²; the “collision cross section (N2)” value ([M-H]-) is recorded as 209 Å².
